Data as given in ChEMBL document CHEMBL1150841, “Mirabilin G: a new alkaloid from a southern Australian marine sponge, Clathria species” (J Nat Prod, 2001).
Activity calls are given as the source filed them.

Experiments:
Format in all cases: functional, organism-based
[1] = system: Serratia marcescens; assay: Antimicrobial activity against Serratia marcescens
[2] = system: Saccharomyces cerevisiae; assay: Antimicrobial activity against Saccharomyces cerevisiae
[3] = system: Escherichia coli; assay: Antimicrobial activity against Escherichia coli

Measured: inhibition

CCCC/C=C/C1=C2NC(=N)N[C@H]3CC[C@@H](C[C@@H]1C)[C@@H]23
active: all assays above
